“And” between values parts separate entries of the source, which are not always exact repeats. Identical values can stand only once. “Also recorded” adds a separate entry of the source.
Key:
[1] = system: mild to moderate plaque psoriasis; test: Study of topical ruxolitinib (INCB018424) cream in plaque psoriasis, PASI response at day 28 (Example 1); format: in vivo, human; settings: for Classification: therapeutic response at day 28, individual subjects; for % Change in PASI at Day 28: individual subjects
[2] = system: mild to moderate plaque psoriasis; test: Double-blind, randomized, vehicle controlled dose ranging study of topical ruxolitinib (INCB018424) in plaque psoriasis, PASI response at day 28 and day 84 (Example 4); format: in vivo, human; settings: for Classification: therapeutic response at day 84, individual subjects; for % Change in PASI at Day 28 / % Change in PASI at Day 84: individual subjects

N#CC[C@H](C1CCCC1)n1cc(-c2ncnc3[nH]ccc23)cn1 [INCB018424, (3R)-3-cyclopentyl-3-[4-(7H-pyrrolo[2,3-d]pyrimidin-4-yl)-1H-pyrazol-1-yl]propanenitrile]
Classification ([1]; 1.0% BID): Responder | Classification ([1]; 1.5% BID): Responder; also recorded: Non-Responder | Classification ([1]; 1.5% QD): Non-Responder; also recorded: Responder | % Change in PASI at Day 28 ([1]; topical cream 1.0% BID): −60.0% and −66.7% (2×) | % Change in PASI at Day 28 ([1]; topical cream 1.5% BID): −85.7% and −40.0% (2×) and −33.3% and −50.0% and −60.0% | % Change in PASI at Day 28 ([1]; topical cream 1.5% QD): −33.3% and −80.0% and −50.0% | Classification ([2]; 0.5% QD): Responder (individuals were classified as responders if they had >=50% improvement in psoriasis area severity index on day 84); also recorded: Non-Responder | Classification ([2]; 1.0% QD): Non-Responder; also recorded: Responder (individuals were classified as responders if they had >=50% improvement in psoriasis area severity index on day 84) | Classification ([2]; 1.5% QD): Non-Responder; also recorded: Responder (individuals were classified as responders if they had >=50% improvement in psoriasis area severity index on day 84) | % Change in PASI at Day 28 ([2]; topical cream 0.5% QD): −16.7% (2×) and −23.5% and −51.7% and −12.5% and −27.8% | % Change in PASI at Day 84 ([2]; topical cream 0.5% QD): −75% and −50% and −23.5% and −66.7% and −12.5% and −45.9% | % Change in PASI at Day 28 ([2]; topical cream 1.0% QD): −15.3% and 0% and 83.3% | % Change in PASI at Day 84 ([2]; topical cream 1.0% QD): 0% and −66.7% and 77.8% | % Change in PASI at Day 28 ([2]; topical cream 1.5% QD): −12.6% and −4.7% and −28% and −50% and −32% | % Change in PASI at Day 84 ([2]; topical cream 1.5% QD): −12.6% and −42.5% and −30% and −84.8% and −64%

Source: patent US11584961B2, “Biomarkers for inflammatory skin disease” (Incyte Corporation, priority 2018, dated 2023)
